According to US10941157B2, “Pesticidal compositions and uses thereof” (Gilead Apollo, LLC, priority 2015, dated 2021):
In brackets after ≈: the same amount, converted by molar mass. Like-named read-outs stand apart in the source and are kept apart here.

Assays:
Type in all cases: cell-based
[1] = system: Fusarium virguliforme (Fv); assay: In vitro pathogen growth inhibition assay, Fv
Procedure, shortened: (§1)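 Value reported is the compound concentration reaching ≥90% growth inhibition, from OD readings at 24 and 48 h after blank subtraction, confirmed visually. Inoculum was spores diluted in 17% V8 medium, except Rs, using 1.5 mm mycelial plugs in ¼ PDB; actual compound concentration corrected via OD600.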

Rhizoctonia solani (Rs) = assay: In vitro pathogen growth inhibition assay, Rs (mycelial plugs); conditions: Rhizoctonia solani, 48 h
Procedure, shortened: as §1

Diplodia maydis (Dm) = assay: In vitro pathogen growth inhibition assay, Dm; conditions: Stenocarpella maydis, 48 h
Procedure, shortened: as §1

[2] = system: Phytophthora capsici (Pc); assay: In vitro pathogen growth inhibition assay, Pc; conditions: 48 h
Procedure, shortened: as §1

[3] = system: Collectotrichum graminicola (Cg); assay: In vitro pathogen growth inhibition assay, Cg; conditions: 48 h
Procedure, shortened: (§2)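 Spores in 17% V8 liquid medium, or 1.5 mm Rs mycelial plugs in ¼ PDB, incubated with compound; final concentration checked by OD600 for precipitation. OD readings at 24 and 48 h, blank-subtracted, plus visual ratings; value is concentration giving ≥90% growth inhibition.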

Botrtyis cinerea (Bc) = assay: In vitro pathogen growth inhibition assay, Bc; conditions: 48 h
Procedure, shortened: as §2

[4] = system: Fusarium moniliforme (Fm); assay: In vitro pathogen growth inhibition assay, Fm; conditions: Fusarium verticillioides
Procedure, shortened: as §2

Septoria tritici (St) = assay: In vitro pathogen growth inhibition assay, St; conditions: Zymoseptoria tritici, 48 h
Procedure, shortened: as §2

[5] = ≥90% growth inhibition, 48 hours, vs 2% DMSO control, read-out: Compound Concentration (ppm) sufficient for ≥90% inhibition of Fv
[6] = ≥90% growth inhibition, mycelial plugs, 48 hours, vs 2% DMSO control, read-out: Compound Concentration (ppm) sufficient for ≥90% inhibition of Rs
[7] = ≥90% growth inhibition, 48 hours, vs 2% DMSO control, read-out: Compound Concentration (ppm) sufficient for ≥90% inhibition of Dm
[8] = ≥90% growth inhibition, 48 hours, vs 2% DMSO control, read-out: Compound Concentration (ppm) sufficient for ≥90% inhibition of Pc
[9] = ≥90% growth inhibition, 48 hours, vs 2% DMSO control, read-out: Compound Concentration (ppm) sufficient for ≥90% inhibition of Cg
[10] = ≥90% growth inhibition, 48 hours, vs 2% DMSO control, read-out: Compound Concentration (ppm) sufficient for ≥90% inhibition of Bc
[11] = ≥90% growth inhibition, 48 hours, vs 2% DMSO control, read-out: Compound Concentration (ppm) sufficient for ≥90% inhibition of Fm
[12] = ≥90% growth inhibition, 48 hours, vs 2% DMSO control, read-out: Compound Concentration (ppm) sufficient for ≥90% inhibition of St

Row | IC90 [1, 5] [µg/mL] | IC90 (Rhizoctonia solani (Rs); [6]) [µg/mL] | IC90 (Diplodia maydis (Dm); [7]) [µg/mL] | IC90 [2, 8] [µg/mL] | IC90 [3, 9] [µg/mL] | IC90 (Botrtyis cinerea (Bc); [10]) [µg/mL] | IC90 [4, 11] [µg/mL] | IC90 (Septoria tritici (St); [12]) [µg/mL] | IC90 ([1]; concentration sufficient to ≥90% inhibition of growth, 48 hours vs 2% DMSO control, read-out: Compound Concentration (ppm) for ≥90% inhibition, Fv) [µg/mL] | IC90 (Rhizoctonia solani (Rs); concentration sufficient to ≥90% inhibition of growth, 48 hours vs 2% DMSO control, read-out: Compound Concentration (ppm) for ≥90% inhibition, Rs) [µg/mL] | IC90 (Diplodia maydis (Dm); concentration sufficient to ≥90% inhibition of growth, 48 hours vs 2% DMSO control, read-out: Compound Concentration (ppm) for ≥90% inhibition, Dm) [µg/mL] | IC90 ([2]; concentration sufficient to ≥90% inhibition of growth, 48 hours vs 2% DMSO control, read-out: Compound Concentration (ppm) for ≥90% inhibition, Pc) [µg/mL] | IC90 ([3]; concentration sufficient to ≥90% inhibition of growth, 48 hours vs 2% DMSO control, read-out: Compound Concentration (ppm) for ≥90% inhibition, Cg) [µg/mL] | IC90 (Botrtyis cinerea (Bc); concentration sufficient to ≥90% inhibition of growth, 48 hours vs 2% DMSO control, read-out: Compound Concentration (ppm) for ≥90% inhibition, Bc) [µg/mL] | IC90 ([4]; concentration sufficient to ≥90% inhibition of growth, 48 hours vs 2% DMSO control, read-out: Compound Concentration (ppm) for ≥90% inhibition, Fm) [µg/mL] | IC90 (Septoria tritici (St); concentration sufficient to ≥90% inhibition of growth, 48 hours vs 2% DMSO control, read-out: Compound Concentration (ppm) for ≥90% inhibition, St) [µg/mL] | Compound
1 | 0.4 (≈ 0.622 µM) | 0.08 (≈ 0.124 µM) | 2 (≈ 3.11 µM) | 50 (≈ 77.8 µM) | 2 (≈ 3.11 µM) | 0.4 (≈ 0.622 µM) | 0.08 (≈ 0.124 µM) | > 50 | – | – | – | – | – | – | – | – | COc1ccc(F)cc1[C@H](Cn1c(=O)n(C(C)(C)C(=O)NC(C)C)c(=O)c2c(C)c(-n3nccn3)sc21)O[C@H]1CC[C@@H](O)CC1 [Compound I-264]
2 | 0.4 (≈ 0.64 µM) | 0.08 (≈ 0.128 µM) | 2 (≈ 3.2 µM) | ≥ 50 | 2 (≈ 3.2 µM) | 0.4 (≈ 0.64 µM) | 0.08 (≈ 0.128 µM) | ≥ 50 | – | – | – | – | – | – | – | – | COc1ccccc1[C@H](Cn1c(=O)n(C(C)(C)C(=O)NC(C)C)c(=O)c2c(C)c(-n3nccn3)sc21)O[C@H]1CC[C@@H](O)CC1 [Compound I-265]
3 | 2 (≈ 3.26 µM) | 2 (≈ 3.26 µM) | 10 (≈ 16.3 µM) | ≥ 50 | 10 (≈ 16.3 µM) | 2 (≈ 3.26 µM) | 2 (≈ 3.26 µM) | > 50 | – | – | – | – | – | – | – | – | COc1ccccc1[C@H](Cn1c(=O)n(C(C)(C)C(=O)NC(C)C)c(=O)c2c(C)c(-n3nccn3)sc21)OCCC(=O)NO [Compound I-266]
4 | 0.4 (≈ 0.641 µM) | 0.4 (≈ 0.641 µM) | 2 (≈ 3.21 µM) | > 50 | 2 (≈ 3.21 µM) | 0.4 (≈ 0.641 µM) | 0.08 (≈ 0.128 µM) | > 50 | – | – | – | – | – | – | – | – | Cc1c(-n2nccn2)sc2c1c(=O)n(C(C)(C)C(=O)NC1CCC1)c(=O)n2C[C@H](OC(C)C)c1cc(F)ccc1OCC#N [Compound I-267]
5 | 2 (≈ 3 µM) | 0.4 (≈ 0.599 µM) | ≥ 2 | > 50 | 2 (≈ 3 µM) | 2 (≈ 3 µM) | 0.08 (≈ 0.12 µM) | > 50 | – | – | – | – | – | – | – | – | Cc1c(-n2nccn2)sc2c1c(=O)n(C(C)(C)C(=O)NC(C)C)c(=O)n2C[C@H](O[C@H]1CC[C@@H](O)CC1)c1cc(F)ccc1OCC#N [Compound I-268]
6 | 10 (≈ 15.2 µM) | 2 (≈ 3.04 µM) | > 50 | > 50 | > 50 | 10 (≈ 15.2 µM) | 0.4 (≈ 0.608 µM) | > 50 | – | – | – | – | – | – | – | – | Cc1c(-n2nccn2)sc2c1c(=O)n(C(C)(C)C(=O)NC(C)C)c(=O)n2C[C@H](OCC(C)(C)C#N)c1cc(C#N)ccc1OCC#N [Compound I-269]
7 | 0.4 (≈ 0.583 µM) | > 50 | 2 (≈ 2.91 µM) | > 50 | 2 (≈ 2.91 µM) | 0.4 (≈ 0.583 µM) | 0.08 (≈ 0.117 µM) | > 50 | – | – | – | – | – | – | – | – | COc1ccc(Br)cc1[C@H](Cn1c(=O)n(C(C)(C)C(=O)NC(C)C)c(=O)c2c(C)c(-n3nccn3)sc21)OCC(C)(C)C#N [Compound I-270]
8 | 10 (≈ 17.4 µM) | 2 (≈ 3.48 µM) | 50 (≈ 87 µM) | 50 (≈ 87 µM) | ≥ 10 | 10 (≈ 17.4 µM) | 2 (≈ 3.48 µM) | > 50 | – | – | – | – | – | – | – | – | Cc1c(-n2nccn2)sc2c1c(=O)n(C(C)(C)C(=O)NC(C)C)c(=O)n2C[C@H](OCCO)c1cc(F)ccc1O [Compound I-271]
9 | 2 (≈ 3.11 µM) | 2 (≈ 3.11 µM) | 2 (≈ 3.11 µM) | > 50 | 2 (≈ 3.11 µM) | 2 (≈ 3.11 µM) | 2 (≈ 3.11 µM) | > 50 | – | – | – | – | – | – | – | – | COc1ccc(Cl)cc1[C@H](Cn1c(=O)n(C(C)(C)C(=O)NC(C)C)c(=O)c2c(C)c(-n3nccn3)sc21)OCC(C)(C)C#N [Compound I-272]
10 | 0.4 (≈ 0.654 µM) | 2 (≈ 3.27 µM) | 50 (≈ 81.7 µM) | > 50 | 2 (≈ 3.27 µM) | 0.4 (≈ 0.654 µM) | 0.08 (≈ 0.131 µM) | > 50 | – | – | – | – | – | – | – | – | COc1ccc(F)cc1[C@](C)(Cn1c(=O)n(C(C)(C)C(=O)NC(C)C)c(=O)c2c(C)c(-n3nccn3)sc21)OCCC#N [Compound I-273]
11 | – | – | – | – | – | – | – | – | > 50 | 50 (≈ 84.9 µM) | > 50 | > 50 | 50 (≈ 84.9 µM) | 50 (≈ 84.9 µM) | 50 (≈ 84.9 µM) | > 50 | COc1ccc(F)cc1[C@](O)(CCO)Cn1c(=O)n(C(C)(C)C(=O)NC(C)C)c(=O)c2c(C)c(-n3nccn3)sc21 [Compound I-275]
